{"source": "patent US6251944A", "about": "“Para-substituted phenylene derivatives” (G. D. Searle & Company, priority 1999, dated 2001)", "key": {"[1]": {"target": "T1, Human fibrinogen receptor (αIIbβ3) (Homo sapiens, UniProt P05106+P08514)", "T1 construct": "purified from outdated platelets; from tissue; host or cells: outdated platelets (human)", "T1 sequence (P08514 32-887 limits assumed)": "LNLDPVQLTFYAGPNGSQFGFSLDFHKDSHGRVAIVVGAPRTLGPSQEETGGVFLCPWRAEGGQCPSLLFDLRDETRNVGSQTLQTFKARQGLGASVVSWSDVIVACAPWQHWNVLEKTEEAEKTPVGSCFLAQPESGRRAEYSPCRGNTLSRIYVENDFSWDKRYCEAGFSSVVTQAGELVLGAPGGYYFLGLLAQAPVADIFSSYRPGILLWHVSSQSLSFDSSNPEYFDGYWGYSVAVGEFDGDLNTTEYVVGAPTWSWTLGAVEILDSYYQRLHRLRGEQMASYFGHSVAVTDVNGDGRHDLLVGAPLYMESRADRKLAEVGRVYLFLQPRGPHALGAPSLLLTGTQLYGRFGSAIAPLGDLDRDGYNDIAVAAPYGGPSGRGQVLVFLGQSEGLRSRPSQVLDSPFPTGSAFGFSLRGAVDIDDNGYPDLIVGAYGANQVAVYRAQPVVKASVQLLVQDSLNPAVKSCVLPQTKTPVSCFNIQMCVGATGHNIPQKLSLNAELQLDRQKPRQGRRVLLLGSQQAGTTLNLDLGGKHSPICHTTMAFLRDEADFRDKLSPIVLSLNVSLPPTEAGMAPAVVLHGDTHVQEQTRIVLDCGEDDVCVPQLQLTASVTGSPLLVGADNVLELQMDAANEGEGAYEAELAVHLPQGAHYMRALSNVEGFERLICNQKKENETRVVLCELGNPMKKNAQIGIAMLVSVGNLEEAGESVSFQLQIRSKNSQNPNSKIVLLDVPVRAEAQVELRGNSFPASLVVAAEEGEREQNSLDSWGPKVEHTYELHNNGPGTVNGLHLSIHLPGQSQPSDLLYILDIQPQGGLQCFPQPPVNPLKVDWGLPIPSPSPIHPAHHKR", "T1 sequence (P08514 891-1039 limits assumed)": "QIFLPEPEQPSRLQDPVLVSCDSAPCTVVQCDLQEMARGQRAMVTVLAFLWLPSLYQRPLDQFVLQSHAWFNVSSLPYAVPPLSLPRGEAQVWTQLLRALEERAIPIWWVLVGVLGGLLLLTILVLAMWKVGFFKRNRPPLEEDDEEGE", "T1 sequence (P05106 27-788)": "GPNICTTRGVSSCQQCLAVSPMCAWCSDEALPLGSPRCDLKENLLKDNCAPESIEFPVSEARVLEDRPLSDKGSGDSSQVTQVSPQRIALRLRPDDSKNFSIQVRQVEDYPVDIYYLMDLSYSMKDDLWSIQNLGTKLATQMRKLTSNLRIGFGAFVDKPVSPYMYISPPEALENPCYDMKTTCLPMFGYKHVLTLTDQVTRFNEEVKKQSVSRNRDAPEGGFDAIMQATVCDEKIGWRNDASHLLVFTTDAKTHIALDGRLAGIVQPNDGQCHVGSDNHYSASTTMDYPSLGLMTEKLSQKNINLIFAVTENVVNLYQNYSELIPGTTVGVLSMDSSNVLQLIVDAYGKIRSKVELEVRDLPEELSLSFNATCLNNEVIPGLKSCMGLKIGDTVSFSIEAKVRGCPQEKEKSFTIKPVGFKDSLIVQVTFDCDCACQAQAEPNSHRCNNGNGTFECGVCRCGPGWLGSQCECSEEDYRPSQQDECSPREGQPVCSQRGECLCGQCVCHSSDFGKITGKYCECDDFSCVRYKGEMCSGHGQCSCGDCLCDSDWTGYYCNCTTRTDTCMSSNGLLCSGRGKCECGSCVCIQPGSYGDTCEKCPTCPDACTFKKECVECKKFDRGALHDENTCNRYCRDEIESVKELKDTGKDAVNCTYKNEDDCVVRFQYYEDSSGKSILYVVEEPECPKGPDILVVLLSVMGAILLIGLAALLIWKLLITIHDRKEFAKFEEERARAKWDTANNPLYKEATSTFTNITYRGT", "assay": "Purified IIb/IIIa receptor assay (solid phase receptor assay)", "conditions": "inhibition of 50% of maximum binding of biotinylated vitronectin; highest concentration tested 1.0×10^-4 M", "experimental": "The activity of the compounds of the present invention was tested in the following assays.\nHuman fibrinogen receptor (αIIbβ3) was purified from outdated platelets. […] Biotinylated human vitronectin was prepared by coupling NHS-biotin from Pierce Chemical Company (Rockford, Ill.) to purified vitronectin as previously described. […] Anti-biotin antibody was obtained from Calbiochem (La Jolla, Calif.). Linbro microtiter plates were obtained from Flow Labs (McLean, Va.). ADP reagent was obtained from Sigma (St. Louis, Mo.).\nSolid Phase Receptor Assays\nThe purified human fibrinogen receptor (αIIbβ3) was diluted from stock solutions to 1.0 μg/mL in Tris-buffered saline containing 1.0 mM Ca^++, Mg^++, and Mn^++, pH 7.4 (TBS^+++). The diluted receptor was immediately transferred to Linbro microtiter plates at 100 μL/well (100 ng receptor/well). The plates were sealed and incubated overnight at 4° C. to allow the receptor to bind to the wells. All remaining steps were at room temperature. The assay plates were emptied and 200 μL of 1% RIA grade BSA in TBS^+++ (TBS^+++ /BSA) were added to block exposed plastic surfaces. Following a 2 hour incubation, the assay plates were washed with TBS^+++ using a 96 well plate washer. Logarithmic serial dilution of the test compound and controls were made starting at a stock concentration of 2 mM and using 2 nM biotinylated vitronectin in TBS^+++ /BSA as the diluent. This premixing of labeled ligand with test (or control) ligand, and subsequent transfer of 50 μL aliquots to the assay plate was carried out with a CETUS Propette robot; the final concentration of the labeled ligand was 1 nM and the highest concentration of test compound was 1.0×10^-4 M. The competition occurred for two hours after which all wells were washed with a plate washer as before. Affinity purified horseradish peroxidase labeled goat anti-biotin antibody was diluted 1:3000 in TBS^+++ /BSA and 125 μL were added to each well. After 30 minutes, the plates were washed and incubated with […]/H2 O2 substrate in 100 mM/L citrate buffer, pH 5.0. The plate was read with a microtiter plate reader at a wavelength of 450 nm and when the maximum-binding control wells reached an absorbance of about 1.0, the final A450 were recorded for analysis. The data were analyzed using a macro written for use with the EXCEL™ spreadsheet program. The mean, standard deviation, and % CV were determined for duplicate concentrations. The mean A450 values were normalized to the mean of four maximum-binding controls (no competitor added) (B-MAX). The normalized values were subjected to a four parameter curve fit algorithm, [Robard et al., Int."}, "[2]": {"target": "T2, Human vitronectin receptor(αvβ3) (Homo sapiens, UniProt P05106+P06756)", "T2 construct": "purified from human placenta; from tissue; host or cells: human placenta", "T2 sequence (P06756 31-889 limits assumed)": "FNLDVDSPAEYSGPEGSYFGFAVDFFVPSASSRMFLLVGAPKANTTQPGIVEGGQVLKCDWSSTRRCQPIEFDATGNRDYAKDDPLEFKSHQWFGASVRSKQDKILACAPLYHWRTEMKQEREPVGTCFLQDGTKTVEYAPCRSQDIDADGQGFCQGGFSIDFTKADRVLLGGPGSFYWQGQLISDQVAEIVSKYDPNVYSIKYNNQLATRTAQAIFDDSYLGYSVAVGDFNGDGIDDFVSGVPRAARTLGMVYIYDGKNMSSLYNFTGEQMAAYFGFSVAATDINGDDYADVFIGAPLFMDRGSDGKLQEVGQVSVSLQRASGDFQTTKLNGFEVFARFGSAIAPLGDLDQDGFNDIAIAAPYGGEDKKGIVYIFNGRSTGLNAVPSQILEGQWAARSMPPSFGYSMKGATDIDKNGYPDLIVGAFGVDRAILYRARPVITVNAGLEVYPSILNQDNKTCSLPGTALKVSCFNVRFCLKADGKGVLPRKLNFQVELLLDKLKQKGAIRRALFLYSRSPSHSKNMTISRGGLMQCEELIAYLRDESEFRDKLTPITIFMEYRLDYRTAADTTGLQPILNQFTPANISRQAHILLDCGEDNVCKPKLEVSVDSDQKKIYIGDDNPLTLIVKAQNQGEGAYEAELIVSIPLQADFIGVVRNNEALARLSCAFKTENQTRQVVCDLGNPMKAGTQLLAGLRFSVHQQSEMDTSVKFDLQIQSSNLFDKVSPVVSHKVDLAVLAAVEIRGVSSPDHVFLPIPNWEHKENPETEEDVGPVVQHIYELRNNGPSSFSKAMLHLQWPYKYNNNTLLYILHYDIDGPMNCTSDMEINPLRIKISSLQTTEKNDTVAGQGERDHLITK", "T2 sequence (P06756 891-1048 limits assumed)": "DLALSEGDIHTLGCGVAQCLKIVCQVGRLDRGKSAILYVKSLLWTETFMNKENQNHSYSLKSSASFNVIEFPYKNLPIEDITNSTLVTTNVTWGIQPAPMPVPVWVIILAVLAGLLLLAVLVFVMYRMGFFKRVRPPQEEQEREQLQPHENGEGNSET", "T2 sequence (P05106 27-788)": "as the sequence (P05106 27-788) above", "assay": "Vitronectin adhesion assay (solid phase receptor assay, αvβ3)", "conditions": "inhibition of 50% of maximum binding of biotinylated vitronectin; highest concentration tested 1.0×10^-4 M; read-out: AvB3 IC50", "experimental": "The activity of the compounds of the present invention was tested in the following assays. […] Assay buffer, OPD substrate tablets, and RIA grade BSA were obtained from Sigma (St. Louis, Mo.). Anti-biotin antibody was obtained from Calbiochem (La Jolla, Calif.). Linbro microtiter plates were obtained from Flow Labs (McLean, Va.). ADP reagent was obtained from Sigma (St. Louis, Mo.). […] The purified human vitronectin receptor (αvβ3) was diluted from stock solutions to 1.0 μg/mL in Tris-buffered saline containing 1.0 mM Ca^++, Mg^++, and Mn^++, pH 7.4 (TBS^+++). The diluted receptor was immediately transferred to Linbro microtiter plates at 100 μL/well (100 ng receptor/well). The plates were sealed and incubated overnight at 4° C. to allow the receptor to bind to the wells. All remaining steps were at room temperature. The assay plates were emptied and 200 μL of 1% RIA grade BSA in TBS^+++ (TBS^+++ /BSA) were added to block exposed plastic surfaces. Following a 2 hour incubation, the assay plates were washed with TBS^+++ using a 96 well plate washer. […] The competition occurred for two hours after which all wells were washed with a plate washer as before. […] After 30 minutes, the plates were washed and incubated with OPD/H2 O2 substrate in 100 mM/L Citrate buffer, pH 5.0. […] The data were analyzed using a macro written for use with the EXCEL™ spreadsheet program. The mean, standard deviation, and % CV were determined for duplicate concentrations. The mean A450 values were normalized to the mean of four maximum-binding controls (no competitor added)(B-MAX). The normalized values were subjected to a four parameter curve fit algorithm [Rodbard et al., Int. […] Ser."}}, "note": "Structures can show the parent of a compound that is named as a salt.", "data": [{"smiles": "CC(C)(C)CC(=O)NC(Cc1ccc(NC(=O)c2cc(NC(=N)N)cc(C(F)(F)F)c2)cc1)C(=O)O", "note": "(centres unmarked) [Example 110, 4-[[[3-[(aminoiminomethyl)amino]-5-(trifluoromethyl)phenyl]carbonyl]amino]-N-(3,3-dimethyl-1-oxobutyl)phenylalanine, trifluoroacetate Salt]", "values": [{"measurement": "IC50", "setting": "[1]", "result": 0.326, "unit": "µM"}, {"measurement": "IC50", "setting": "[2]", "result": 0.004, "unit": "µM"}]}, {"smiles": "COc1cc(NC(=O)c2cccc(NC(=N)N)c2)ccc1CC(NC(=O)OC(C)C)C(=O)O", "note": "(centres unmarked) [Example 113, 4-[[[3-[(aminoiminomethyl)amino]phenyl]carbonyl]amino]-2-methoxy-N-[(1-methylethoxy)carbonyl]phenylalanine, trifluoroacetate salt, monohydrate]", "values": [{"measurement": "IC50", "setting": "[1]", "result": 0.253, "unit": "µM"}, {"measurement": "IC50", "setting": "[2]", "result": 0.001, "unit": "µM"}]}, {"smiles": "COc1cc(NC(=O)c2cccc(NC(=N)N)c2)ccc1OCC(=O)O", "note": "[Example 118, [4-[[[3-[(aminoiminomethyl)amino]phenyl]carbonyl]amino]-2-methoxyphenoxy]acetic Acid, trifluoroacetate Salt]", "values": [{"measurement": "IC50", "setting": "[1]", "result": 0.054, "unit": "µM"}, {"measurement": "IC50", "setting": "[2]", "result": 0.003, "unit": "µM"}]}, {"smiles": "N=C(N)Nc1cccc(C(=O)Nc2ccc(CC(NS(=O)(=O)/C=C/c3ccccc3)C(=O)O)cc2)c1", "note": "(centres unmarked) [Example 123, 4-[[[3-[(aminoiminomethyl)amino]phenyl]carbonyl]amino]-N-[(2-phenylethenyl)sulfonyl]phenylalanine, trifluoroacetate Salt]", "values": [{"measurement": "IC50", "setting": "[1]", "result": 0.0015, "unit": "µM"}, {"measurement": "IC50", "setting": "[2]", "result": 0.0005, "unit": "µM"}]}, {"smiles": "CC(C)(C)NC(=O)NC(Cc1ccc(NC(=O)c2cccc(NC(=N)N)c2)cc1)C(=O)O", "note": "(centres unmarked) [Example 124, 4-[[[3-[(aminoiminomethyl)amino]phenyl]carbonyl)amino]-N-[[(1,1-dimethylethyl)amino]carbonyl]phenylalanine, trifluoroacetate Salt]", "values": [{"measurement": "IC50", "setting": "[1]", "result": 0.285, "unit": "µM"}, {"measurement": "IC50", "setting": "[2]", "result": 0.003, "unit": "µM"}]}, {"smiles": "CC(C)OC(=O)NC(Cc1ccc(NC(=O)c2cccc(C(=O)NC(=N)N)c2)cc1)C(=O)O", "note": "(centres unmarked) [Example 128, 4-[[[3-[[(aminoiminomethyl)amino]carbonyl]phenyl]carbonyl]amino]-N-[(1-methylethoxy)carbonyl]phenylalanine, trifluoroacetate Salt]", "values": [{"measurement": "IC50", "setting": "[1]", "result": 0.02, "unit": "µM"}, {"measurement": "IC50", "setting": "[2]", "result": 0.216, "unit": "µM"}]}, {"smiles": "CCC(Cc1ccc(NC(=O)c2cccc(NC(=N)N)c2)cc1)C(=O)O", "note": "(stereo not drawn) [Example 129, 4-[[[3-[(aminoiminomethyl)amino]phenyl]carbonyl]amino]-α-ethylbenzenepropanoic Acid, trifluoroacetate Salt]", "values": [{"measurement": "IC50", "setting": "[1]", "result": 5.26, "unit": "µM"}, {"measurement": "IC50", "setting": "[2]", "result": 0.265, "unit": "µM"}]}]}
